Measured values as given in patent publication US20070207198A1, “Use Of N-Acety1-D-Glucosamine In The Manufacture Of Medicaments For Anti-Tumors And Anti-Metastasis” (Beijing Sino-Hong Kong Dafu Science & Technology of Biowave …, priority 2003, published 2007).

Tests used:
Proteus Mirabilis = assay: Promoting wave test (bio-wave model); format: cell-based; conditions: final concentration 0.5% on LB plate, 37° C.
Excerpt: 2. Experimental results and evaluation: • The experiment adopted a bio-wave model for studying the promoting wave function of the compound of formula (I).

B16 cells = assay: Sole-injected B16 tumor growth in mice; format: in vivo, Kunming mice and Balbc mice; set-up: Diameter of tumor: unit not given here; conditions: for Diameter of tumor: 10% aqueous solution i.p.
Protocol: 1.1 Animals Kunming mice, Scad male mice
1.2 Tumor cells: B16 cells, PG cells and Biu cells, which were presented by from the Staff Room of Pathology of the present university and the Tumor Department of the Second Affiliated Hospital, respectively.
1.3 Methods: soles of Kunming mice and Balbc mice were injected with B16 cell suspension, and these mice were intraperitoneally injected with 10% aqueous solution of the compound of formula (I) at 0th, 4th and 7th day after B16 cells were injected.

[1] = Typical case: breast cancer patient, metastasis after operation; format: in vivo, human; conditions: injection 15 g/60 kg/day before and for a week after the operation; within one year after the operation
Excerpt: Chen, female, was accepted by the Department of Surgery of Chuanxinan Mining Area Hospital for suffering with breast cancer. The chief physician, Chen Qi, considered the high metastasis rate after operation, administrated Chen via injected with the compound of formula (I) in a dose of 15 g/60 kg/day before the operation and for a continuous week after the operation.

[2] = in vivo
Excerpt: 1. Acute toxicity test: including tests of administrating medicine orally, intravenous injection and maximum limit amount for administration;

SMILES: CC(=O)N[C@@H]1[C@@H](O)[C@H](O)[C@@H](CO)O[C@H]1O [compound of formula (I), N-acetyl-D-glucosamine]
- promoting wave function (ring pattern compared with control) (Proteus Mirabilis): many fine waves on each ring emerged
- Diameter of tumor (B16 cells; Group I (administered immediately), observation time 3): 0
- Diameter of tumor (B16 cells; Group I (administered immediately), observation time 7): 0.11
- Diameter of tumor (B16 cells; Group I (administered immediately), observation time 14): 0.18
- Diameter of tumor (B16 cells; Group I (administered immediately), observation time 21): 0.21
- Diameter of tumor (B16 cells; Group I (administered immediately), observation time 28): 0.15
- Diameter of tumor (B16 cells; Group II (administered at the 4th day), observation time 3): 0.05
- Diameter of tumor (B16 cells; Group II (administered at the 4th day), observation time 7): 0.12
- Diameter of tumor (B16 cells; Group II (administered at the 4th day), observation time 14): 0.43
- Diameter of tumor (B16 cells; Group II (administered at the 4th day), observation time 21): 0.58
- Diameter of tumor (B16 cells; Group II (administered at the 4th day), observation time 28): 0.72
- Diameter of tumor (B16 cells; Group III (administered at the 7th day), observation time 3): 0.1
- Diameter of tumor (B16 cells; Group III (administered at the 7th day), observation time 7): 0.21
- Diameter of tumor (B16 cells; Group III (administered at the 7th day), observation time 14): 0.60
- Diameter of tumor (B16 cells; Group III (administered at the 7th day), observation time 21): 1.10
- Diameter of tumor (B16 cells; Group III (administered at the 7th day), observation time 28): 1.38
- growth of tumor (B16 cells; high concentration intraperitoneally injected, B16 cells): inhibited
- metastasis after operation [1]: no metastasis occurred
- acute dosage relative to the injection dosage for human being [2]: 300 times
- dosage at which the acute toxicosis reaction had not appeared [2]: more than 2 g/kg
